# Laboratory results as given in patent publication US8435582B2, “Beverage preservative system containing Pimaricin-Povidone complex” (PepsiCo, Inc., priority 2009, dated 2013).
# Like-named read-outs stand apart in the source and are kept apart here.
# Legend:
# [1] = test system: Talaromyces spectabilis ATCC 90900; test: 16 week MIC of un-complexed Pimaricin in 2% juice beverage, mold spores; format: cell-based; conditions: Paecilomyces variotii, ATCC90900; beverage pH 3.4, 25° C., 20 spores/ml, spores from Potato Dextrose 25 °C; read-out: 16 week incubation MIC
# Excerpt: (§1) A 2% fruit juice based non-carbonated beverage of pH 3.4 and about 12 Brix was formed by combining the following ingredients.
# (§2) The preparation of beverage was divided into two aliquots.
# (§3) The tubes were sealed in a manner that prohibits moisture evaporation.
# (§4) The mold spores employed were obtained from the following organisms. Aspergillus niger isolate of Pepsi; ATCC strain 90900 (Talaromyces spectabilis), ATCC strain 48441 (Pencillium galbrum), ATCC 24088 (Byssochlamys fulva), ATCC 96468 (Neosartorya fischeri) ATCC strain 96463 (Talaromyces flavus) and ATCC strain ATCC 10512 (Talaromyces flavus var. flavus). Each spore type was present at 20 spores per milliliter.
# [2] = test system: Tataromyces flavus ATCC 96463; test: as above; format: cell-based; conditions: Talaromyces flavus, ATCC96463; beverage pH 3.4, 25° C., 20 spores/ml, spores from Potato Dextrose 25 °C; read-out: 16 week incubation MIC
# Excerpt: as §1, §2, §3, §4
# [3] = test system: Aspergillus niger isolate of Pepsi; test: as above; format: cell-based; conditions: beverage pH 3.4, 25° C., 20 spores/ml, spores from Potato Dextrose 25 °C, read-out: 16 week incubation MIC
# Excerpt: as §1, §2, §3, §4
# [4] = test system: Neosartorya fischeri ATCC 96468; test: as above; format: cell-based; conditions: Aspergillus fischeri, ATCC96468; beverage pH 3.4, 25° C., 20 spores/ml, spores from Potato Dextrose 25 °C; read-out: 16 week incubation MIC
# Excerpt: as §1, §2, §3, §4
# [5] = test system: Penicillium glabrum ATCC 48441; test: as above; format: cell-based; conditions: ATCC48441, beverage pH 3.4, 25° C., 20 spores/ml, spores from Potato Dextrose 25 °C, read-out: 16 week incubation MIC
# Excerpt: as §1, §2, §3, §4
# [6] = test system: Talaromyces flavus var flavus ATCC 10512; test: as above; format: cell-based; conditions: ATCC10512, beverage pH 3.4, 25° C., 20 spores/ml, spores from Potato Dextrose 25 °C, read-out: 16 week incubation MIC
# Excerpt: as §1, §2, §3, §4
# [7] = 25° C., pH approximately 6.4; cited from earlier work
# [8] = test system: Byssochlamys fulva ATCC 10099; test: Growth inhibitory effect of Pimaricin, beverage medium containing 5% DMSO; format: cell-based; conditions: Paecilomyces fulvus, ATCC10099, pH 3.4, 5% DMSO beverage pH 3.4, 25° C., read-out: Observed MIC (16 week)
# Excerpt: as §1, §2
# (§5) The second aliquot of beverage is identical to the first aliquot except for the presence of pimaricin. It also contains 5% DMSO. […] The tubes were sealed in a manner that prohibits moisture evaporation.
# (§6) Yeast employed in the study are Zygosaccharomyces bisporus (ATCC 52407) Zygosaccharomyces bailii (ATCC 60484), Saccharomyces cerevisiae (Pepsi Isolate Y99), Brettanomyces (Pepsi Isolate Chemy 7UP), and Zygosaccharomyces (Pepsi Isolate Y2).
# (§7) The mold spores employed were obtained from the following organisms Paecilomyces variotii (Pepsi isolate D16), Penicillium camembertii (Pepsi isolate M3), (Talaromyces flavus var. flavus (ATCC 10512), Byssochlamys nieva (ATCC 36614), and Byssochlamys fulva ATCC 10099). Each spore type was present initially at 20 spores per milliliter of product. Spores for a couple of strains of mold (such as Byssochlamys nieva) were developed at both 25° C. on Potato Dextrose and 30° C. on Malt Extract in order to ensure some variation in the ratio of asci (ascospores) to conidiospores.
# [9] = test system: Zygosaccharomyces bailli ATCC 60484; test: as above; format: cell-based; conditions: ATCC60484, 5% DMSO beverage pH 3.4, 25° C., PDA, read-out: Observed MIC (16 week)
# Excerpt: as §1, §2, §5, §6, §7
# [10] = test system: Zygosaccharomyces bailli Pepsi Isolate; test: as above; format: cell-based; conditions: 5% DMSO beverage pH 3.4, 25° C., PDA, read-out: Observed MIC (16 week)
# Excerpt: as §1, §2, §5, §6, §7
# [11] = test system: Paecilomyces variotii Pepsi Isolate; test: as above; format: cell-based; conditions: pH 3.4, 5% DMSO beverage pH 3.4, 25° C., read-out: Observed MIC (16 week)
# Excerpt: as §1, §2, §5, §6, §7
# [12] = test system: Byssochlamys nieva ATCC 36614; test: as above; format: cell-based; conditions: 2688 h; 5% DMSO beverage pH 3.4, 25° C.; spores generated on PDA at 25 °C; read-out: Observed MIC (16 week)
# Excerpt: as §1, §2, §5, §6, §7
# [13] = test system: Brettanomyces Pepsi Isolate; test: as above; format: cell-based; conditions: 2688 h, 5% DMSO beverage pH 3.4, 25° C., PDA, read-out: Observed MIC (16 week)
# Excerpt: as §1, §2, §5, §6, §7
# [14] = test system: Zygosaccharomyces bisporus ATCC 52407; test: as above; format: cell-based; conditions: ATCC52407, 5% DMSO beverage pH 3.4, 25° C., PDA, read-out: Observed MIC (16 week)
# Excerpt: as §1, §2, §5, §6, §7
# [15] = test system: Penicillium camembertii Pepsi Isolate; test: as above; format: cell-based; conditions: pH 3.4, 5% DMSO beverage pH 3.4, 25° C., read-out: Observed MIC (16 week)
# Excerpt: as §1, §2, §5, §6, §7
# [16] = test system: Saccharomyces cerevisiae Pepsi Isolate; test: as above; format: cell-based; conditions: 5% DMSO beverage pH 3.4, 25° C., PDA, read-out: Observed MIC (16 week)
# Excerpt: as §1, §2, §5, §6, §7
# [17] = test system: Talaromyces flavus var flavus ATCC 10512; test: as above; format: cell-based; conditions: spores generated on PDA at 25 °C
# Excerpt: as §1, §2, §5, §6, §7
# mold fungi = test: Preservation of beverage product for 16 weeks, Pimaricin stand alone; format: cell-based; conditions: Pimaricin as the only antimicrobial substance (stand alone)
# [18] = test system: Byssochlamys fulva ATCC 10099; test: 16 week MIC of un-complexed Pimaricin in 2% juice beverage, mold spores; format: cell-based; conditions: Paecilomyces fulvus, ATCC10099; beverage pH 3.4, 25° C., 20 spores/ml, spores from Potato Dextrose 25 °C; read-out: 16 week incubation MIC
# physchem = format: physicochemical
# Excerpt: as §1, §2
# [19] = spores generated on MEA at 30 °C
# [20] = spores generated on PDA at 25 °C
smiles,measurement,setting,value
C[C@@H]1C/C=C/C=C/C=C/C=C/[C@H](O[C@@H]2O[C@H](C)[C@@H](O)[C@H](N)[C@@H]2O)C[C@@H]2O[C@](O)(C[C@@H](O)C[C@H]3O[C@@H]3/C=C/C(=O)O1)C[C@H](O)[C@H]2C(=O)O [Pimaricin],MIC,[1],10.3 µg/mL
same,MIC,[2],> 20 µg/mL
same,MIC,[3],18.4 µg/mL
same,MIC,[4],> 20 µg/mL
same,MIC,[5],5.7 µg/mL
same,MIC,[6],> 20 µg/mL
same,solubility in pure water,[7],52 µg/mL
same,MIC,[8]; [19],7.9 µg/mL
same,MIC,[8]; [20],2 µg/mL
same,MIC,[9],2.5 µg/mL
same,MIC,[10],2.5 µg/mL
same,MIC,[11]; [19],> 72 µg/mL
same,MIC,[11]; [20],58.3 µg/mL
same,MIC,[12],46 µg/mL
same,MIC,[13],2.5 µg/mL
same,MIC,[14],2.5 µg/mL
same,MIC,[15]; [19],65 µg/mL
same,MIC,[15]; [20],6.4 µg/mL
same,MIC,[16],2.5 µg/mL
same,Observed MIC (16 week),"[17]; 5% DMSO beverage pH 3.4, 25° C.",>72 ppm
same,MIC,"[17]; Talaromyces flavus, ATCC10512, pH 3.4, 5% DMSO beverage pH 3.4, 25° C., read-out: Observed MIC (16 week)",72 µg/mL
same,minimum initial concentration needed to preserve product for 16 weeks,mold fungi,280 mg Pimaricin per liter
same,MIC,[18],16.9 µg/mL
same,solubility,"physchem; 4 °C, pH 3.4, aqueous buffer, thermodynamic from solid, solubility limit in high acid beverage",10 µg/mL
same,solubility at 24 h,"physchem; 25 °C, pH 3.4, aqueous buffer, thermodynamic from solid, solubility limit in high acid beverage",20 µg/mL
same,solubility limit in high acid beverage,"physchem; 24 h, pH 3.4",about 20 mg/L
